Assay results: patent US20240002379A1, “ASYMMETRIC CONJUGATE COMPOUNDS” (Pheon Therapeutics Ltd., priority 2016, published 2024)

What was measured:
[1] = system: fluorescently labelled DNA duplex 5′-[…]-3′; assay: FRET DNA melting, FIG. 13 top duplex (interstrand); format: binding
Source text: FRET DNA melting studies were undertaken on 13 using two fluorescently labelled sequences. The sequences (FIG. 13) were designed to provide additional evidence that 13 can form inter- and intrastrand cross-links. Inosines were inserted in place of traditional DNA bases to limit the number of binding sites available for 13 to interact with.
Oligonucleotides were obtained from ATDbio (Southampton, UK) in lyophilised form. They were labelled with a fluorophore molecule (F=fluorescein) at the 5′-end and a quencher molecule (Q=dabcyl) at the 3′-end of the complementary strand. Each oligonucleotide was dissolved in distilled H2O to form stock solutions of 100 PM. Working solutions of 5 μM were prepared by diluting the stock solution with distilled H2O. […]
(§1) The reaction mixture was comprised of 4 μL of 250 mM phosphate buffer (final concentration of 50 mM), 4 μL flourophor and 4 μL quencher molecule of the appropriate oligonucleotide for a final concentration of 0.2 PM, 4 μL 5 M sodium chloride (final concentration of 1 M NaCl), and 4 μL of distilled H2O. […] This mixture was analysed without prior annealing.
(§2) Fluorescence melting profiles were measured using a Roche LightCycler using a total reaction volume of 20 μL. […] Annealing steps and melting steps were all recorded and changes in fluorescence were measured at 520 nm. […]

SW48 cell line (gastric) = assay: MTT cytotoxicity assay, SW48; format: cell-based; details: Homo sapiens, SW48; MTT assay, 72 hour incubation; read-out: Cytotoxicity SW48 (72 hrs)
Procedure, shortened: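 Cells seeded at 1800/well in RPMI1640 + 10% FBS, adhered overnight, then exposed to compound 72 h at 37° C. Survival by MTT (500 μg/ml, 4 h), formazan in DMSO read at 540 nm, blank-corrected versus untreated wells; IC50 read from concentration–survival plot.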

[2] = system: fluorescently labelled DNA duplex 5′-[…]-3′; assay: FRET DNA melting, FIG. 17 middle sequence; format: binding; details: suggests interstrand cross-link formation
Source text: (§3) Further FRET DNA melting studies were undertaken on a number of molecules using three fluorescently labelled sequences. The sequences (FIG. 17) were designed to provide additional evidence that the series can form inter- and intrastrand cross-links. Inosines were inserted in place of traditional DNA bases in some cases to limit the number of binding sites available for the compounds to interact with. The short duplexes used in this FRET study are relatively unstable in the duplex form with a melting temperature below 30° C. so that, in the absence of ligand, a large part of the melting occurs below the starting temperature of the experiment. […] Increasing concentrations of 13 cause a greater amount of the melting transition to appear at the higher temperature (i.e. a greater number of the DNA molecules are cross-linked). […]
as §1, §2

[3] = system: fluorescently labelled DNA duplex 5′-[…]-3′; assay: FRET DNA melting, FIG. 17 bottom sequence; format: binding; details: at higher concentrations; intra-strand cross-links
Source text: as §3, §1, §2

Row | SMILES | change of melting temperature with compound concentration ([1]; FIG. 14 top panel) | Tm value ([1]; duplex alone melts below 30° C., suggests interstrand cross-link) [°C] | IC50 (SW48 cell line (gastric)) [pM] | Tm value [2] [°C] | Tm [3] [°C]
1 | COc1cc2c(cc1OCCCC(=O)N1C[C@@H](CCl)c3c1cc(O)c1ccccc31)N=C[C@@H]1CCCCN1C2=O [Compound 13, (S)-3-(4-((S)-1-(Chloromethyl)-5-hydroxy-1,2-dihydro-3H-benzo[e]indol-3-yl)-4-oxobutoxy)-2-methoxy-7,8,9,10-tetrahydrobenzo[e]-pyrido[1,2-a][1,4]diazepin-12(6aH)-one] | increases significantly | ~65 | 280 | – | –
2 | COc1cc2c(cc1OCc1cccc(CC(=O)N3C[C@@H](CCl)c4c3cc(O)c3ccccc43)c1)N=C[C@@H]1CCCCN1C2=O [Compound 42, (S)-3-((3-(2-((S)-1-(Chloromethyl)-5-hydroxy-1,2-dihydro-3H-benzo[e]indol-3-yl)-2-oxoethyl)benzyl)oxy)-2-methoxy-7,8,9,10-tetrahydrobenzo[e]pyrido[1,2-a][1,4]diazepin-12(6aH)-one] | – | – | – | ~80 | ~80
